{"source": "patent US6469013B2", "about": "“Therapeutic compounds” (Parker Hughes Institute, priority 1998, dated 2002)", "key": {"[1]": {"system": "C57BL/6 recipients", "assay": "Allogeneic islet transplantation (BALB/c islets)", "type": "in vivo, mouse", "method": "Islets were hand-picked 3-4 times under the dissecting scope before islets were free of exocrine tissue, vessels, lymph nodes and ducts and ready for transplantation.\nFour hundred islets were placed in Hamilton syringe and transplanted under the left kidney capsule of each diabetic recipient mouse. Recipients were rendered diabetic with a single i.p. dose of streptozotocin (200 mg/kg; Sigma, St. Louis, Mo.) 1 wk before transplantation. Blood glucose level was measured by One Touch Profile glucose monitor system (Lifescan, Milpitas, Calif.). […] Allograft function was monitored by serial blood glucose measurements. […] All injections were given i.p.\nKidneys bearing grafts were removed, fixed in 10% formalin and embedded in paraffin. Serial sections of graft area were cut and stained with hematoxylin and eosin. For insulin staining, sections were stained by immunoperoxidase method using 1:100 dilution of polyclonal guinea pig anti-insulin antibody (Gpx Insulin, Dako, Carpinteria, Calif.) and 1:100 dilution of secondary antibody conjugated to horse radish peroxidase (Guinea Pig Immunoglobulins HRP, Dako, Carpinteria, Calif.). Sections were briefly counterstained with hematoxylin and mounted for light microscopic examination."}, "[2]": {"biological_target": "T1, recombinant murine JAK3 (Mus musculus, UniProt Q62137)", "T1 sequence (Q62137 1-1100)": "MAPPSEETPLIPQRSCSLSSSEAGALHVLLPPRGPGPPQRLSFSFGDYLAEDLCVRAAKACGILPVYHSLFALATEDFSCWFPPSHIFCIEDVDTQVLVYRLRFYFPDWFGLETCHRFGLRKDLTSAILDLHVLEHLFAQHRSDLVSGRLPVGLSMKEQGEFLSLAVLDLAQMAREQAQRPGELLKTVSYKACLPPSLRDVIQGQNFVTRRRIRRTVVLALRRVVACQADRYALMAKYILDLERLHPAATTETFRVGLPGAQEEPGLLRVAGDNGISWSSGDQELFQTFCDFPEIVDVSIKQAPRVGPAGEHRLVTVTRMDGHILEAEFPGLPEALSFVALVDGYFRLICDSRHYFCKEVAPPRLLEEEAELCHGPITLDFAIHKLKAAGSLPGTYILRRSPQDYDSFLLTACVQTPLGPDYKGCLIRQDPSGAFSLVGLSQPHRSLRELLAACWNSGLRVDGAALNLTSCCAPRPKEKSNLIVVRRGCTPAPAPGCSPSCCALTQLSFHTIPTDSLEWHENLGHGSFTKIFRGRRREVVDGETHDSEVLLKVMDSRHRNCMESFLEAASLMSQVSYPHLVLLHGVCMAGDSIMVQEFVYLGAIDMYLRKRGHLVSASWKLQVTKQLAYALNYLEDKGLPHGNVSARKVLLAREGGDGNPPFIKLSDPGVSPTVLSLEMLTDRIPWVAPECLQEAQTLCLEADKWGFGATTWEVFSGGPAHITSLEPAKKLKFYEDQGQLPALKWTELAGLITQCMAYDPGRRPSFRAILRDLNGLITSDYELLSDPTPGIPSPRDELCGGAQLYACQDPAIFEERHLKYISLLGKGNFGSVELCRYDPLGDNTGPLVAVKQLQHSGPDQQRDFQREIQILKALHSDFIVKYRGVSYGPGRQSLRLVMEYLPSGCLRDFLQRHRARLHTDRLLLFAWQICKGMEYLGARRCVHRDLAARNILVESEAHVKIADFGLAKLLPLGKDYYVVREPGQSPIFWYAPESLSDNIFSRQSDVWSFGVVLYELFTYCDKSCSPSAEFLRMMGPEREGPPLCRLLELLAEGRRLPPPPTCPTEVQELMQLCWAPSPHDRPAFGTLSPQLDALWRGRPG", "assay": "Recombinant JAK3 immune complex kinase assay (baculovirus, Sf21)", "type": "biochemical", "method": "Sf21 (IPLB-SF21-AE) cells (Vassilev, A., et al., J. Biol. Chem. 274: 1646-1656, 1999) derived from the ovarian tissue of the fall armyworm Spodotera frugiperda, were obtained from Invitrogen (Carlsbad, Calif.) and maintained at 26-28° C. in Grace's insect cell medium supplemented with 10% FBS and 1.0% antibiotic/antimycotic (GIBCO-BRL). Stock cells were maintained in suspension at 0.2-1.6×10^6/ml in 600 ml total culture volume in 1 L Bellco spinner flasks at 60-90 rpm. Cell viability was maintained at 95-100% as determined by trypan blue dye exclusion. Sf21 cells were infected with a baculovirus expression vector for BTK, SYK, JAK1, JAK2, or JAK3. Cells were harvested, lysed (10 MM Tris pH7.6, 100 mM NaCl, 1% Nonidet P40, 10% glycerol, 50 mM NaF, 100 μM Na3VO4, 50 μg/ml phenylmethylsulfonyl fluoride, 10 μg/ml aprotonin, 10 μg/ml leupeptin), the kinases were immunoprecipitated from the lysates, and their enzymatic activity assayed, as reported (Vassilev, A., et al., J. Biol. Chem. 274: 1646-1656, 1999; Uckun, F. M., et al., Science. 22: 1096-1100, 1996; Goodman, P. A., et al., J. Biol. Chem. 273: 17742-48, 1998; Mahajan, S., et al., Mol. Cell. Biol. 15: 5304-11, 1995; and Uckun, F. M., et al., Science. 267: 886-91, 1995). The immunoprecipitates were subjected to Western blot analysis as previously described (Vassilev, A., et al., J. Biol. Chem. 274: 1646-1656, 1999; and Uckun, F. M., et al., Science. 22: 1096-1100, 1996).\nIn JAK3 immune complex kinase assays (17, 22), KL-2 EBV-transformed human lymphoblastoid B cells (native JAK3 kinase assays) or insect ovary cells (recombinant JAK3 kinase assays) were lysed with NP-40 lysis buffer (50 mM Tris, pH 8, 150 mM NaCl, 5 mM EDTA, 1% NP-40, 100 μM sodium orthovanadate, 100 μM sodium molybdate, 8 μg/ml aprotinin, 5 μg/ml leupeptin, and 500 μM PMSF) and centrifuged 10 min at 13000× g to remove insoluble material. Samples were immunoprecipitated with antisera prepared against JAK3. The antisera were diluted and immune complexes collected by incubation with 15 μl protein A Sepharose. After 4 washes with NP-40 lysis buffer, the protein A Sepharose beads were washed once in kinase buffer (20 mM MOPS, pH7, 10 mM MgCl2) and resuspended in the same buffer. Reactions were initiated by the addition of 25 μCi [γ^32P] ATP (5000 Ci/mMole) and unlabeled ATP to a final concentration of 5 μM. Reactions were terminated by boiling for 4 min in SDS sample buffer. Samples were run on 9.5% SDS polyacrylamide gels and labeled proteins were detected by autoradiography. […] For each drug concentration, a kinase activity index (KA) was determined by comparing the kinase activity in phosphorimager units (PIU) to that of the baseline sample. […]"}}}
{"molecule": "COc1cc2ncnc(Nc3ccc(O)cc3)c2cc1OC", "note": "[WHI-P131, 4-(4′-hydroxyl-phenyl)-amino-6,7-dimethoxyquinazoline]", "values": [{"measurement": "islet allograft mean survival time (MST)", "setting": "[1]; 50 mg/kg daily i.p., controls 14.1±0.9", "value": "24.7±3.4", "unit": "days"}, {"measurement": "islet allograft mean survival time (MST)", "setting": "[1]; 75 mg/kg daily i.p.", "value": "25.3±3.8", "unit": "days"}, {"measurement": "IC50", "setting": "[2]; recombinant murine JAK3", "value": 78, "unit": "µM"}, {"measurement": "IC50", "setting": "[2]; recombinant murine JAK3, converted from μg/ml", "value": "~78", "unit": "µM"}]}
